# Results: US8623859B2, “Bradykinin B1 antagonists” (Evotec AG, priority 2008, dated 2014)
# pIC50: −log10 of the molar value. Counter-ions that a name gives are not always drawn.
# Target: T1, human B1 (Homo sapiens, UniProt P46663)
# T1 construct: host or cells: CHO-K1
# T1 sequence (P46663 1-353): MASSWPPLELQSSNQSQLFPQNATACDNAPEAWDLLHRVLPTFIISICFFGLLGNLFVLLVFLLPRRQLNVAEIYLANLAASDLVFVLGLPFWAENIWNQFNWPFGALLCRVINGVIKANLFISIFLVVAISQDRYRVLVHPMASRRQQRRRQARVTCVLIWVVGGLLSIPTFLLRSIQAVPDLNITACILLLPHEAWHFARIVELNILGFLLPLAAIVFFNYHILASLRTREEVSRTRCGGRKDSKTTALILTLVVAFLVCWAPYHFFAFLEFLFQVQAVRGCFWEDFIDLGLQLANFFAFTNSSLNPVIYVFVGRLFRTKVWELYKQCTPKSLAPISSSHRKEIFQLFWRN
# Assay: Calcium flux assay for Bradykinin B1 antagonist, CHO-K1 cell line expressing human B1
# Type: cell-based
# Conditions: CHO-K1 cells expressing human B1, agonist Lys-(Des-Arg)-Bradykinin, read-out: Potency (IC50 value against human B1)
# Method in brief: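 CHO-K1 cells expressing human B1, loaded with 5 μM Fluo-4AM (2 h, 37° C) in HEPES buffer pH 7.4 with probenecid and 0.1% BSA, were preincubated 30 min at 25° C with compound (8 concentrations, triplicate, 1% DMSO) before B1 agonist addition. Ca2+ fluorescence monitored at 538 nm; background-normalized integrated values plotted against log antagonist concentration.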
row,pIC50,SMILES
1,6.00 to 7.00,"COc1cc(C)c(S(=O)(=O)N(C)C(C)c2cc(C(=O)NCCc3ccc(C4=NCCN4)cc3)co2)c(C)c1 (centres unmarked) [Ex 85, N-{2-[4-(4,5-dihydro-1H-imidazol-2-yl)phenyl]ethyl}-5-(1-{[(4-methoxy-2,6-dimethylphenyl)sulfonyl](methyl)amino}ethyl)furan-3-carboxamide trifluoroacetamide]"
2,7.00 to 8.00,"COc1cc(C)c(S(=O)(=O)N(Cc2cc(C(=O)N3CCN(CCCN4CCCC4)CC3)co2)C2CC2)c(C)c1 [Ex 115, N-Cyclopropyl-4-methoxy-2,6-dimethyl-N-[(4-{[4-(3-pyrrolidin-1-ylpropyl)piperazin-1-yl]carbonyl}furan-2-yl)methyl]benzenesulfonamide trifluoroacetate]"
3,6.00 to 7.00,"CN(Cc1ccc(CN2CCCC2)cc1)C(=O)c1coc(CN(C2CC2)S(=O)(=O)c2c(Cl)cc(Cl)cc2Cl)n1 [Ex 216, 2-({Cyclopropyl[(2,4,6-trichlorophenyl)sulfonyl]amino}methyl)-N-methyl-N-[4-(pyrrolidin-1-ylmethyl)benzyl]-1,3-oxazole-4-carboxamide trifluoroacetate]"
4,6.00 to 7.00,"COc1cc(C)c(S(=O)(=O)N(C)Cc2cc(C(=O)NCCc3ccc(CN4CCCC4)cc3)co2)c(C)c1 [Ex 46, 5-({[(4-methoxy-2,6-dimethylphenyl)sulfonyl](methyl)amino}methyl)-N-{2-[4-(pyrrolidin-1-ylmethyl)phenyl]ethyl}furan-3-carboxamide]"
5,6.00 to 7.00,"COc1cc(C)c(S(=O)(=O)N(C)Cc2cc(C(=O)N(C)Cc3ccc(C4=NCC(C)(C)CN4)cc3)co2)c(C)c1 [Ex 40, N-[4-(5,5-dimethyl-1,4,5,6-tetrahydropyrimidin-2-yl)benzyl]-5-({[(4-methoxy-2,6-dimethylphenyl)sulfonyl](methyl)amino}methyl)-N-methylfuran-3-carboxamide]"
6,6.00 to 7.00,"COc1cc(C)c(S(=O)(=O)N(Cc2nc(C(=O)N3CCN(CC4CCN(C(=O)OC(C)(C)C)CC4)CC3)co2)C2CC2)c(C)c1 [Ex 238, trifluoroacetate]"
7,6.00 to 7.00,"COc1cc(C)c(S(=O)(=O)N(Cc2cc(C(=O)N(C)Cc3ccc(CN4CCC(NC(C)=O)C4)cc3)co2)C2CC2)c(C)c1 (centres unmarked) [Ex 146, N-(4-{[3-(Acetylamino)pyrrolidin-1-yl]methyl}benzyl)-5-({cyclopropyl[(4-methoxy-2,6-dimethylphenyl)sulfonyl]amino}methyl)-N-methylfuran-3-carboxamide]"
8,6.00 to 7.00,"COc1cc(C)c(S(=O)(=O)N(C)Cc2cc(C(=O)NCc3ccc(CN4CCCC4)cc3)co2)c(C)c1 [Ex 37, 5-({[(4-methoxy-2,6-dimethylphenyl)sulfonyl](methyl)amino}methyl)-N-[4-(pyrrolidin-1-ylmethyl)benzyl]furan-3-carboxamide]"
9,6.00 to 7.00,"O=C(c1coc(CN(C2CC2)S(=O)(=O)c2c(Cl)cc(Br)cc2Cl)c1)N1CCCC(c2ccc(CN3CCCC3)cc2)C1 (centres unmarked) [Ex 125, 4-Bromo-2,6-dichloro-N-cyclopropyl-N-{[4-({3-[4-(pyrrolidin-1-ylmethyl)phenyl]piperidin-1-yl}carbonyl)furan-2-yl]methyl}benzenesulfonamide trifluoroacetate]"
10,6.00 to 7.00,"COc1cc(C)c(S(=O)(=O)N(Cc2nc(C(=O)N3CCN(Cc4ccncc4F)CC3)co2)C2CC2)c(C)c1 [Ex 232, N-Cyclopropyl-N-{[4-({4-[(3-fluoropyridin-4-yl)methyl]piperazin-1-yl}carbonyl)-1,3-oxazol-2-yl]methyl}-4-methoxy-2,6-dimethylbenzenesulfonamide trifluoroacetate]"
11,7.00 to 8.00,"COc1cc(C)c(S(=O)(=O)N(C)Cc2cc(C(=O)N3CCN(CC4CCCN(C)C4)CC3)co2)c(C)c1 (centres unmarked) [Ex 31, 4-methoxy-N,2,6-trimethyl-N-{[4-({4-[(1-methylpiperidin-3-yl)methyl]piperazin-1-yl}carbonyl)furan-2-yl]methyl}benzenesulfonamide]"
12,> 8.00,"COc1cc(C)c(S(=O)(=O)N(C)Cc2cc(C(=O)NCCc3ccc(C4=NCC(C)(C)N4)cc3)co2)c(C)c1 [Ex 94, N-{2-[4-(5,5-Dimethyl-4,5-dihydro-1H-imidazol-2-yl)phenyl]ethyl}-5-({[(4-methoxy-2,6-dimethylphenyl)sulfonyl](methyl)amino}methyl)furan-3-carboxamide trifluoroacetate]"
13,6.00 to 7.00,"COc1cc(C)c(S(=O)(=O)N(C)Cc2cc(C(=O)N(C)Cc3ccc(-n4ccnc4)cc3)co2)c(C)c1 [Ex 2, N-[4-(1H-imidazol-1-yl)benzyl]-5-({[(4-methoxy-2,6-dimethylphenyl)sulfonyl](methyl)amino}methyl)-N-methylfuran-3-carboxamide]"
14,6.00 to 7.00,"COc1cc(C)c(S(=O)(=O)N(C)Cc2noc(C(=O)N3CCN(CCCCN(C)C)CC3)n2)c(C)c1 [Ex 319, N-{[5-({4-[4-(Dimethylamino)butyl]piperazin-1-yl}carbonyl)-1,2,4-oxadiazol-3-yl]methyl}-4-methoxy-N,2,6-trimethylbenzenesulfonamide trifluoroacetate]"

# More lines, now with the values behind:
row,SMILES,pIC50
1,"COc1cc(C)c(S(=O)(=O)N(Cc2cc(C(=O)NCCc3ccc(C4=NCCN4)cc3)co2)C2CC2)c(C)c1 [Ex 52, 5-({Cyclopropyl[(4-methoxy-2,6-dimethylphenyl)sulfonyl]amino}methyl)-N-{2-[4-(4,5-dihydro-1H-imidazol-2-yl)phenyl]ethyl}furan-3-carboxamide]",> 8.00
2,"COc1cc(C)c(S(=O)(=O)N(Cc2cc(C(=O)N(C)Cc3ccc(CN4CCC(O)C4)cc3)co2)C2CC2)c(C)c1 (centres unmarked) [Ex 141, 5-({Cyclopropyl[(4-methoxy-2,6-dimethylphenyl)sulfonyl]amino}methyl)-N-{4-[(3-hydroxypyrrolidin-1-yl)methyl]benzyl}-N-methylfuran-3-carboxamide]",7.00 to 8.00
3,"COc1cc(C)c(S(=O)(=O)N(Cc2nnc(C(=O)N3CCN(C4CCN(C)CC4)CC3)o2)C2CC2)c(C)c1 [Ex 271, N-Cyclopropyl-4-methoxy-2,6-dimethyl-N-[(5-{[4-(1-methylpiperidin-4-yl)piperazin-1-yl]carbonyl}-1,3,4-oxadiazol-2-yl)methyl]benzenesulfonamide]",7.00 to 8.00
4,"COc1cc(C)c(S(=O)(=O)N(C)Cc2cc(C(=O)N(C)Cc3ccc(C(C)N4CCCC4)cc3)co2)c(C)c1 (centres unmarked) [Ex 88, 5-({[(4-Methoxy-2,6-dimethylphenyl)sulfonyl](methyl)amino}methyl)-N-methyl-N-[4-(1-pyrrolidin-1-ylethyl)benzyl]furan-3-carboxamide trifluoroacetate]",6.00 to 7.00
5,"COc1cc(C)c(S(=O)(=O)N(Cc2noc(C(=O)N(C)Cc3nc(CN4CCCC4)cs3)n2)C2CC2)c(C)c1 [Ex 307, 3-({Cyclopropyl[(4-methoxy-2,6-dimethylphenyl)sulfonyl]amino}methyl)-N-methyl-N-{[4-(pyrrolidin-1-ylmethyl)-1,3-thiazol-2-yl]methyl}-1,2,4-oxadiazole-5-carboxamide trifluoroacetate]",7.00 to 8.00
6,"COc1cc(C)c(S(=O)(=O)N(C)Cc2nnc(C(=O)N3CCN(CC4CCN(C)CC4)CC3)o2)c(C)c1 [Ex 258, 4-Methoxy-N,2,6-trimethyl-N-{[5-({4-[(1-methylpiperidin-4-yl)methyl]piperazin-1-yl}carbonyl)-1,3,4-oxadiazol-2-yl]methyl}benzenesulfonamide]",> 8.00
7,"COc1cc(C)c(S(=O)(=O)N(C)Cc2nc(C(=O)N(C)Cc3ccc(C4=NCCN4)cc3)cs2)c(C)c1 [Ex 81, N-[4-(4,5-dihydro-1H-imidazol-2-yl)benzyl]-2-({[(4-methoxy-2,6-dimethylphenyl)sulfonyl](methyl)amino}methyl)-N-methyl-1,3-thiazole-4-carboxamide]",6.00 to 7.00
8,"COc1cc(C)c(S(=O)(=O)N(C)Cc2cc(C(=O)NCCc3ccc(C4=NCCN4)cc3)c(C)o2)c(C)c1 [Ex 61, N-{2-[4-(4,5-dihydro-1H-imidazol-2-yl)phenyl]ethyl}-5-({[(4-methoxy-2,6-dimethylphenyl)sulfonyl](methyl)amino}methyl)-2-methylfuran-3-carboxamide]",7.00 to 8.00
9,"COc1cc(C)c(S(=O)(=O)N(C)Cc2cc(C(=O)N(C)Cc3ccc(CN4CCCC4)cc3)co2)c(C)c1 [Ex 9, 5-({[(4-methoxy-2,6-dimethylphenyl)sulfonyl](methyl)amino}methyl)-N-methyl-N-[4-(pyrrolidin-1-ylmethyl)benzyl]furan-3-carboxamide]",7.00 to 8.00
10,"COc1cc(C)c(S(=O)(=O)N(C)Cc2cc(C(=O)NCc3ccc(CN4CCCCC4C)cc3)co2)c(C)c1 (centres unmarked) [Ex 99, 5-({[(4-Methoxy-2,6-dimethylphenyl)sulfonyl](methyl)amino}methyl)-N-{4-[(2-methylpiperidin-1-yl)methyl]benzyl}furan-3-carboxamide trifluoroacetate]",6.00 to 7.00
11,"COc1cc(C)c(S(=O)(=O)N(Cc2nnc(C(=O)N3CCN(CCCN4CCCC4)CC3)s2)C2CC2)c(C)c1 [Ex 336, N-Cyclopropyl-4-methoxy-2,6-dimethyl-N-[(5-{[4-(3-pyrrolidin-1-ylpropyl)piperazin-1-yl]carbonyl}-1,3,4-thiadiazol-2-yl)methyl]benzenesulfonamide]",7.00 to 8.00
12,"COc1cc(C)c(S(=O)(=O)N(C)Cc2cc(C(=O)N(C)Cc3ccc(CN4CCCC4)c(F)c3)co2)c(C)c1 [Ex 157, N-[3-Fluoro-4-(pyrrolidin-1-ylmethyl)benzyl]-5-({[(4-methoxy-2,6-dimethylphenyl)sulfonyl](methyl)amino}methyl)-N-methylfuran-3-carboxamide trifluoroacetate]",7.00 to 8.00
